Values after ≈ are worked out from the molar mass of the structure shown.
Legend:
[1] = tested on: P. berghei ANKA parasites; assay: P. berghei 4-day mouse model; assay type: in vivo, Plasmodium berghei; details: for % parasitemia / % reduction in parasitemia: mice, day 4, oral gavage q.d. x4, 50 mg/kg (ART 30 mg/kg); for % reduction in parasitemia: versus vehicle control
Protocol: The 4-day P. berghei mouse model is used to determine the preliminary in vivo efficacy of antimalarials at an early stage of optimization. To determine if cyclopropyl carboxamide series could reduce asexual blood stage infection, we evaluated representative compounds WJM280 (108) and analog 109 in the 4-day P. berghei mouse model. In this model, mice were infected P. berghei asexual stage parasites, and then 2 h after the infection, WJM280 (108) and analog 109 at 50 mg/kg and artesunate at 30 mg/kg were administered by oral gavage. The same compound doses were administered again, 24, 48, and 72 h post infection. Parasitemia was then quantified by preparing blood smears and visualizing by microscopy across days 2, 3, and 4. […] The inability of these compounds to reduce parasitemia was attributed to their high metabolic turnover, which is a characteristic that needs improving on further development of the cyclopropyl carboxamide class.
P. berghei 4-day Mouse Model. This model was conducted as previously described.

[2] = Aqueous solubility (kinetic in PBS, pH 7.4); assay type: physicochemical; details: phosphate buffered saline
Protocol: Solubility. The solubility assay was performed using a miniaturized shake flask method. A solution of phosphate buffered saline (PBS) and the test compound (200 μM) was incubated at 25 °C with constant shaking (600 rpm) for 2 h. The samples were filtered using a multiscreen solubility filter plate. The filtrate was half diluted in acetonitrile. A five-point linearity curve was prepared in PBS:acetonitrile (1:1, v/v) at 200, 150, 75, 25 and 2.5 μM. Blank, linearity and test samples (n = 2) were transferred to a UV readable plate and the plate was scanned for absorbance. Best fit calibration curves were constructed using the calibration standards and used to determine the test sample solubility. The experiment was carried out in duplicate. Diethylstilbestrol, haloperidol, and diclofenac sodium were used as reference standards.

[3] = tested on: P. falciparum 3D7 parasites; assay: P. falciparum 3D7 asexual stage LDH assay (72 h); assay type: cell-based, Plasmodium falciparum; details: Plasmodium falciparum, 3D7, 72 h, LDH activity of P. falciparum 3D7 parasites over 72 h; means and SDs, three or more experiments; read-out: Pf 3D7 EC50 (SD)
Protocol: To establish the SAR, synthesized analogs were assessed against the asexual stage parasite (72 h) using LDH as a proxy for parasite growth inhibition. Cytotoxicity was monitored against the human HepG2 cell line using Cell TitreGlo as a metabolic marker for cell growth.
P. falciparum 3D7 Asexual Stage LDH Assay. This is a platform assay is routinely undertaken at the Walter and Eliza Hall Institute and details on the protocol has been previously published. Briefly, 10-point dilution series of the compounds were prepared in 384 well assay plates using an Echo555 (Labcyte). Appropriate volumes of 10 mM compound stocks were transferred into the assay plates such that the starting concentration was 1 μM, with a 1 in 3-fold dilution series. All wells were backfilled with DMSO to 40 nL such that this remained constant (0.1 % DMSO). The positive growth control was 0.1 % DMSO and the negative growth control was 100 nM chloroquine. The parasite inoculum (40 μL) was dispensed into plates containing compounds using a Multidrop Combi dispenser (Thermo Scientific). […] Following 72 h growth, plates were sealed with parafilm and frozen at −80 °C overnight. Plates were thawed at room temperature for at least 4 h prior to LDH activity being measured. […] Plates were shaken to ensure mixing and absorbance at 650 nm was measured in an EnVision (PerkinElmer) plate reader after 30 min of incubation at room temperature. […] The equation used is sigmoidal dose response (variable slope), Y = bottom + (top − bottom)/(1 + 10((logEC50 − X) × Hill Slope)).

[4] = Human HepG2 growth inhibition assay (Cell TitreGlo, 48 h); assay type: cell-based; details: human, HepG2 cells, HepG2 cell growth inhibition over 48 h
Protocol: To establish the SAR, synthesized analogs were assessed against the asexual stage parasite (72 h) using LDH as a proxy for parasite growth inhibition. Cytotoxicity was monitored against the human HepG2 cell line using Cell TitreGlo as a metabolic marker for cell growth. Cyt b inhibitors typically have high lipophilicity, and so calculated physicochemical properties were determined, while in vitro ADME was also collected on representative analogs to gauge their suitability for efficacy studies in a 4-day P. berghei model.
Human HepG2 Growth Inhibition Assay. This is a routine assay undertaken at the Walter and Eliza Hall Institute and the method has been previously published. HepG2 cells were cultured in Dulbeccos modified eagles medium (DMEM) supplemented with 10 % fetal calf serum (FCS), in a humidified incubator at 37 °C and 5 % CO2. Assay plates (Greiner #781098, 384 well, white, tissue culture treated) were prepared by transferring appropriate volumes of 10 mM compound stocks using an Echo555 (Labcyte) such that the starting concentration was 50 μM, with a 1:2-fold dilution series. All wells were backfilled with DMSO to […] such that this remained constant (0.5 % DMSO). The positive growth control was 0.5 % DMSO and the negative growth control was 10 μM Bortezomib. HepG2 cells were seeded with 1000 cells in 50 μL DMEM with 10 % FCS into each well of the assay plates using a Multidrop Combi dispenser (Thermo Scientific). Plates were incubated at 37 °C and 5 % CO2 for 48 h. Cytotoxicity was determined using Cell Titer Glo (Promega) and calculated as a percentage using DMSO as the positive growth control and 10 μM Bortezomib as a negative growth control. EC50 values were calculated by Dotmatics 5.3 and Spotfire 7.11.1 software using a nonlinear regression four-parameter fit analysis. The equation used is sigmoidal dose response (variable slope), Y = bottom + (top − bottom)/(1 + 10((logEC50 − X) × Hill Slope)).

[5] = eLogD (shake-flask, pH 7.4); assay type: physicochemical; details: 1-octanol/phosphate buffered saline (1:1, v/v), Shake-flask method
Protocol: eLogD. The LogD (pH 7.4) assay was performed using a miniaturized shake flask method. A solution of a pre-saturated mixture of 1-octanol and phosphate buffered saline (PBS) (1:1, v/v) and the test compound (75 μM) was incubated at 25 °C with constant shaking (850 rpm) for 2 h. After incubation the organic and aqueous phases were separated, and samples of each phase transferred to plate for dilution. The organic phase was diluted to 1000-fold and the aqueous phase was diluted 20-fold. The samples were quantitated using LC-MS/MS. The experiment was carried out in duplicate. Propranolol, amitriptyline, and midazolam were used as reference standards.

[6] = Rat hepatocyte stability; assay type: in vitro ADME; details: pooled rat hepatocytes
Protocol: Rat Hepatocyte Stability. A solution of the test compound in Krebs-Henseliet buffer solution (1 μM) was incubated in pooled rat hepatocytes (1 × 10^6 cells/mL) for 0, 15,30,45, 60, 75 and 90 min at 37 °C (5 % CO2, 95 % relative humidity). The reaction was terminated with the addition of ice-cold acetonitrile containing system suitability standard at designated time points. […] The experiment was carried out in duplicate. Diltiazem, 7-ethoxy coumarin, propranolol, and midazolam were used as reference standards.

[7] = Human liver microsome stability; assay type: in vitro ADME; details: pooled human liver microsomes
Protocol: Human Liver Microsome Stability. A solution of the test compounds in phosphate buffer solution (1 μM) was incubated in pooled human liver microsomes (0.5 mg/mL) for 0, 5, 20, 30, 45 and 60 min at 37 °C in the presence and absence of NADPH regeneration system. The reaction was terminated with the addition of ice-cold acetonitrile containing system suitability standard at designated time points. […] The experiment was carried out in duplicate. Verapamil, diltiazem, phenacetin, and imipramine were used as reference standards.

[8] = tested on: male gamete; assay: Dual gamete formation assay, male gametes; assay type: cell-based; details: Plasmodium falciparum; NF54 parasites in a DGFA, 4 replicates
Protocol: (§1) To determine whether the cyclopropyl carboxamide class has transmission blocking potential we profiled selected analogs in a dual gamete formation assay. In this assay, stage V gametocytes are treated with compound, and gametogenesis is induced by the addition of xanthurenic acid. Male gamete viability is determined by an imaging algorithm measuring motile flagellation, while female viability is measured using an antibody to the female-specific Pfs25 surface marker. […] Collectively, the activity observed against male gametes is consistent with activity observed with other cyt b inhibitors.
(§2) Dual Gamete Formation Assay. Compounds were evaluated as previously described as a platform run at both Imperial College London and the London School of Hygiene and Tropical Medicine. Briefly, mature stage V gametocytes were exposed to compounds for 48 h at 37 °C in 384 well plates in gametocyte culture medium (RPMI 1640 supplemented with 25 mM HEPES, 50 μg/mL hypoxanthine, 4.8 g/L NaHCO3, 2 mM L-glutamine, 5 % pooled type AB serum, 0.5 % Albumax II (Gibco)) under a 1 % O2/3 % CO2/96 % N2 environment. Gametogenesis was then triggered by the addition of 10 μL ookinete medium (gametocyte culture medium supplemented with 100 μM xanthurenic acid and 0.27 μg/mL Cy3-labelled anti-Pfs25 antibody) to each well at room temperature. Plates were then cooled on a metal block at 4 °C for 4 min to ensure even cooling and then stabilized for a further 4 min at 28 °C. At 20 min post-induction, male gametogenesis was recorded in each well by automated brightfield microscopy using a × 4 objective lens and 1.5 × magnifier ( × 6 effective magnification). Afterward, plates were incubated in the dark at room temperature for 24 h and then female gametogenesis recorded in each well by automated fluorescence microscopy (anti-Pfs25-positive cells). […] All data was evaluated in comparison to the positive and negative controls to calculate percentage inhibition of male and female gametocytes, and dose response analysis and EC50 calculation performed using GraphPad Prism.

[9] = tested on: female gamete; assay: Dual gamete formation assay, female gametes; assay type: cell-based; details: Plasmodium falciparum; NF54 parasites in a DGFA, 4 replicates
Protocol: as §1, §2

Compound | % parasitemia [1] [%] | % reduction in parasitemia [1] [%] | solubility at 2 h [2] [µM] | EC50 [3] [nM] | CC50 at 48 h [4] [nM] | logD at 2 h [5] | hepatocyte CLint at 1 μM [6] [µL/min/1e6 cells] | microsomal CLint at 1 h, 1 µM [7] [µL/min/mg] | body weights of mice ([1]; 50 mg/kg q.d. oral, 4 days) | hepatocyte CLint at 1.5 h, 1 µM [6] [µL/min/1e6 cells] | EC50 [8] [nM] | EC50 [9] [nM]
C[C@H]1[C@H](OC(=O)CCC(=O)O)O[C@@H]2O[C@@]3(C)CC[C@H]4[C@H](C)CC[C@@H]1[C@@]24OO3 [ART, artesunate, reference compound] | 2.3 | 97.7 | – | – | – | – | – | – | – | – | – | –
O=C(NC1CC1)c1ccc(CN(Cc2ccccc2)C2CC2)cc1 [Compound 17, 4-((Benzyl(cyclopropyl)amino)methyl)-N-cyclopropylbenzamide] | – | – | 44 (≈ 14.1 µg/mL) | 140 | > 40000 | 4 | > 92 | 72 | – | – | – | –
CC(C)N(Cc1ccccc1)Cc1ccc(C(=O)NC2CC2)cc1 [Compound 21, 4-((Benzyl(isopropyl)amino)methyl)-N-cyclopropylbenzamide] | – | – | 140 (≈ 45.1 µg/mL) | 160 | > 40000 | 3.5 | > 92 | 76 | – | – | – | –
O=C(NC1CC1)c1ccc(CN(Cc2ccccc2)C2CCC2)cc1 [Compound 22, 4-((Benzyl(cyclobutyl)amino)methyl)-N-cyclopropylbenzamide] | – | – | 92 (≈ 30.8 µg/mL) | 160 | > 40000 | 3.8 | > 92 | 151 | – | – | – | –
O=C(NC1CC1)c1ccc(CN(Cc2ccccc2)CC(F)(F)F)cc1 [Compound 25, 4-((Benzyl(2,2,2-trifluoroethyl)amino)methyl)-N-cyclopropylbenzamide] | – | – | 11 (≈ 3.99 µg/mL) | 260 | > 40000 | 4.8 | > 92 | 79 | – | – | – | –
CCCN(Cc1ccccc1)Cc1ccc(C(=O)NC2CC2)cc1 [Compound 26, 4-((Benzyl(propyl)amino)methyl)-N-cyclopropylbenzamide] | – | – | 83 (≈ 26.8 µg/mL) | 130 | > 40000 | 3.7 | > 92 | 98 | – | – | – | –
CC(c1ccccc1)N(Cc1ccc(C(=O)NC2CC2)cc1)C1CC1 (stereo not shown) [Compound 97, N-Cyclopropyl-4-((cyclopropyl(1-phenylethyl)amino)methyl)benzamide] | – | – | 22 (≈ 7.36 µg/mL) | 170 | > 40000 | 4.2 | > 92 | 238 | – | – | – | –
O=C(NC1CC1)c1ccc(CN(Cc2ccccc2)C2CC2)nc1 [Compound 104, 6-((Benzyl(cyclopropyl)amino)methyl)-N-cyclopropylnicotinamide] | – | – | – | 3500 | > 40000 | – | – | – | – | – | – | –
O=C(NC1CC1)c1cnc(CN(Cc2ccccc2)C2CC2)s1 [Compound 105, 2-((Benzyl(cyclopropyl)amino)methyl)-N-cyclopropylthiazole-5-carboxamide] | – | – | – | 2400 | > 40000 | – | – | – | – | – | – | –
CCCN(Cc1ccc(C(=O)NC2CC2)cc1)Cc1cc(C(F)(F)F)cc(C(F)(F)F)c1 [Compound 109, 4-(((3,5-Bis(trifluoromethyl)benzyl) (propyl)amino)methyl)-N-cyclopropylbenzamide] | 91 | 9 | 2.5 (≈ 1.15 µg/mL) | 30 | 10000 | 5 | – | 65 | slightly reduced | 60 | – | –
CCCN(Cc1ccc(C(=O)NC2CC2)cc1)Cc1c(C)cc(C)cc1C [Compound 110, N-Cyclopropyl-4-((propyl(2,4,6-trimethylbenzyl)amino)methyl)benzamide] | – | – | – | 80 | > 40000 | – | – | – | – | – | 280 | > 25000
